Among the data in patent US20100056565A1, “Heterocyclic Derivatives as M3 Muscarinic Receptors” (priority 2007, published 2010) are Ki and IC50 values, retold here.

Counter-ions that a name gives are not always drawn. Like-named read-outs stand apart in the source and are kept apart here. A value given as a limit tells only on which side of the number the result lay.

Experiment [1] addresses T1, human muscarinic receptors (M3) (Homo sapiens, UniProt P20309).
T1 construct: purchased
Description: Muscarinic receptor radioligand binding assay, [3H]-NMS, filter plate format. On the procedure:
Radioligand binding studies utilising [^3H]-N-methyl scopolamine ([^3H]-NMS) and commercially available cell membranes expressing the human muscarinic receptors (M2 and M3) were used to assess the affinity of muscarinic antagonists for M2 and M3 receptors. Membranes in TRIS buffer were incubated in 96-well plates with [^3H]-NMS and M3 antagonist at various concentrations for 3 hours. Membranes and bound radioligand were then harvested by filtration and allowed to dry overnight. Scintillation fluid was then added and the bound radioligand counted using a Canberra Packard Topcount scintillation counter

The target in experiment [2] is T2, Recombinant human M3 receptor (Homo sapiens, UniProt P20309).
T2 construct: expressed in transfected cells; host or cells: CHO-K1 cells (membranes)
T2 sequence (P20309 whole entry): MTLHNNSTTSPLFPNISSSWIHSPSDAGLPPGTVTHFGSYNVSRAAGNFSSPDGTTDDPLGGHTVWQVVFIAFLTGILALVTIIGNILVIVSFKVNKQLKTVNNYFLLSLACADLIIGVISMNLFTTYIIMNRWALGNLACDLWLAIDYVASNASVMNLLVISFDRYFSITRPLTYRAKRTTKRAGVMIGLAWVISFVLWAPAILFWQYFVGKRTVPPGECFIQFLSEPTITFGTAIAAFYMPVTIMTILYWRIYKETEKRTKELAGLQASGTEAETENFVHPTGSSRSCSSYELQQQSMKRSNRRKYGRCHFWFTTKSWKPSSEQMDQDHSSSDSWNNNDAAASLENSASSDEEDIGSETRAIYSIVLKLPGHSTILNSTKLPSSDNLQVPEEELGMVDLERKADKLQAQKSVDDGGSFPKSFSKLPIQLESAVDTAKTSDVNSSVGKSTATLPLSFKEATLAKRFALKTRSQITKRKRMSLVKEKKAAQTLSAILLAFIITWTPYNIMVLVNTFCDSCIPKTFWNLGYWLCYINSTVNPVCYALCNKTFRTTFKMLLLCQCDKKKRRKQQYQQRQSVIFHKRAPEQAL
As to the kind of experiment: biochemical. In kind it is binding.

Experiment [3] has as its system Isolated Guinea Pig Trachea. Description: Potency in isolated guinea pig trachea, inhibition of EFS-stimulated contraction. The note with it: Cavia porcellus, electrical field stimulation. Here is the method:
Experiments were carried out at 37° C. in modified Krebs-Henseleit solution, (114 mM NaCl, 15 mM NaHCO3, 1 mM MgSO4, 1.3 mM CaCl2, 4.7 mM KCl, 11.5 mM glucose and 1.2 mM KH2PO4, pH 7.4) gassed with 95% O2/5% CO2. Indomethacin was added to a final concentration of 3 μM
Tracheae were removed from adult male Dunkin Hartley Guinea pigs and dissected free of adherent tissue before being cut open longitudinally in a line opposite the muscle. Individual strips of 2-3 cartilage rings in width were cut and suspended using cotton thread in 10 mL water-jacketed organ baths and attached to a force transducer ensuring that the tissue is located between two platinum electrodes. Responses were recorded via a MP100W/Acknowledge data acquisition system connected to a PC. Tissues were equilibrated for one hour under a resting tone of 1 g and were then subjected to electrical field stimulation at a frequency of 80 Hz with a pulse width of 0.1 ms, a unipolar pulse, triggered every 2 minutes. A “voltage-response” curve was generated for each tissue and a submaximal voltage then applied to every piece of tissue according to its own response to voltage. Tissues were washed with Krebs solution and allowed to stabilize under stimulation prior to addition of test compound. Concentration response curves were obtained by a cumulative addition of test compound in half-log increments. Once the response to each addition had reached a plateau the next addition was made. Percentage inhibition of EFS-stimulated contraction is calculated for each concentration of each compound added and dose response curves constructed using Graphpad Prism software and the IC50 calculated for each compound.

Setting [4] is: filter plate format, read-out: M3 Ki (Filter plate format).
[5] abbreviates: M3, SPA format assay, read-out: Ki in the SPA format assay.
Setting [6] is: SPA format, read-out: M3 Ki (SPA format).
Setting [7] is: M3, filter plate assay, read-out: Ki value in the filter plate assay.

T1 sequence (P20309 whole entry): as above

Regarding `OC(c1ccccc1)(c1ncc(C[N+]23CCC(CC2)C(Oc2ccccc2)C3)o1)C1CCCCC1` (single isomer, unassigned; enantiomer 1) [Example 3, 1-[2-[(RS)—(Cyclohexyl-hydroxy-phenyl-methyl)]-oxazol-5-ylmethyl]-3-phenoxy-1-azonia-bicyclo[2.2.2]octane bromide, enantiomer 1], the Ki in experiment [1] (setting [4]) lay in the range of 5 to 20 nM. With `O=C(O[C@@H]1C[N+]2(Cc3cnc([C@](O)(c4ccccc4)C4CCCCC4)o3)CCC1CC2)c1ccccc1` [Example 10, (S)-3-benzoyloxy-1-[2-((R)-cyclohexyl-hydroxy-phenyl-methyl)-oxazol-5-ylmethyl]-1-azonia-bicyclo[2.2.2]octane; formate], the Ki was in the range of 5 to 20 nM in experiment [1] (M3 Ki (Filter plate format), filter plate format) and 5 to 20 nM in experiment [2] (M3 Ki (SPA format, SPA format)). Consider `OC(c1ccccc1)(c1ccccc1)c1noc(C[N+]23CCC(CC2)[C@@H](Oc2ccc(F)cc2)C3)n1` [Example 95, (R)-3-(4-Fluoro-phenoxy)-1-[3-(hydroxy-diphenyl-methyl)-[1,2,4]oxadiazol-5-ylmethyl]-1-azonia-bicyclo[2.2.2]octane; chloride], for which the values for the Ki in experiment [2] (setting [5]) and in experiment [2] (setting [6]) were 0.17 nM and below 5 nM, respectively. For the same compound, half-maximal inhibition in experiment [3] (IC50) required 0.6 nM. `OC(c1ccccc1)(c1ncc(C[N+]23CCC(CC2)C(Oc2ccccc2)C3)o1)C1CCCCC1` (single isomer, unassigned; enantiomer 2) [Example 4, 1-[2-[(RS)—(Cyclohexyl-hydroxy-phenyl-methyl)]-oxazol-5-ylmethyl]-3-phenoxy-1-azonia-bicyclo[2.2.2]octane bromide, enantiomer 2]: the inhibition constant (Ki) in experiment [1] (setting [7]) was 2 nM; in experiment [1] (setting [4]), below 5 nM. For the compound `OC(c1ccccc1)(c1ccccc1)c1ncc(C[N+]23CCC(CC2)C(Oc2ccccc2)C3)o1` (single isomer, unassigned; enantiomer 1) [Example 1, 1-[2-(Hydroxy-diphenyl-methyl)-oxazol-5-ylmethyl]-3-phenoxy-1-azoniabicyclo[2.2.2]octane bromide, enantiomer 1], the Ki in experiment [1] (setting [4]) and in experiment [2] (setting [6]) was above 20 nM each time. On to `O[C@](c1ccccc1)(c1ncc(C[N+]23CCC(CC2)[C@@H](COc2ccccc2)C3)o1)C1CCCCC1` [Example 25, (R)-1-[2-((R)—Cyclohexyl-hydroxy-phenyl-methyl)-oxazol-5-ylmethyl]-3-phenoxymethyl-1-azonia-bicyclo[2.2.2]octane; bromide], for which the Ki in experiment [2] (setting [5]) was 0.13 nM; in experiment [2] (setting [6]), below 5 nM. Moreover, the IC50 in experiment [3] was found to be 1.9 nM.

For the compound `O[C@](c1ccccc1)(c1ncc(C[N+]23CCC(CC2)[C@@H](OCc2ccccc2)C3)o1)C1CCCC1` [Example 42, (R)-3-benzyloxy-1-[2-((R)-cyclopentyl-hydroxy-phenyl-methyl)-oxazol-5-ylmethyl]-1-azonia-bicyclo[2.2.2]octane; formate], the Ki was 0.09 nM in experiment [2] (setting [5]) and below 5 nM in experiment [2] (setting [6]). This compound also showed an IC50 in experiment [3] of 0.7 nM. Consider `OC(c1ccccc1)(c1ccccc1)c1ncc(C[N+]23CCC(CC2)C(Oc2ccccc2)C3)o1` (single isomer, unassigned; enantiomer 2) [Example 2, 1-[2-(Hydroxy-diphenyl-methyl)-oxazol-5-ylmethyl]-3-phenoxy-1-azoniabicyclo[2.2.2]octane bromide, enantiomer 2], for which the Ki was 0.9 nM in experiment [1] (setting [7]), below 5 nM in experiment [1] (setting [4]) and below 5 nM in experiment [2] (setting [6]). Consider `OC(c1ccccc1)(c1cc(C[N+]23CCC(CC2)[C@@H](Sc2ccccc2)C3)on1)C1CCCCC1` (single isomer, unassigned) [Example 70, 1-[3-(Cyclohexyl-hydroxy-phenyl-methyl)-isoxazol-5-ylmethyl]-3-phenylsulfanyl-1-azonia-bicyclo[2.2.2]octane; chloride], for which the Ki in experiment [2] (setting [5]) is 0.65 nM; in experiment [2] (setting [6]), below 5 nM. In experiment [3], the IC50 was found to be 2.8 nM.

On to `O[C@](c1ccccc1)(c1ncc(C[N+]23CCC(c4ccccc4)(CC2)CC3)o1)C1CCCCC1` [Example 11, 1-[2-((R)-cyclohexyl-hydroxy-phenyl-methyl)-oxazol-5-ylmethyl]-4-phenyl-1-azonia-bicyclo[2.2.2]octane; formate], for which the Ki in experiment [1] (setting [4]) and in experiment [2] (setting [6]) was above 20 nM throughout. With `O[C@@](c1ccccc1)(c1ncc(C[N+]23CCC(CC2)[C@@H](Oc2ccccc2)C3)o1)C1CCCCC1` [Example 7, (R)-1-[2-((S)—Cyclohexyl-hydroxy-phenyl-methyl)-oxazol-5-ylmethyl]-3-phenoxy-1-azonia-bicyclo[2.2.2]octane bromide], the Ki in experiment [2] (setting [6]) was 5 to 20 nM. As for `O[C@](c1ccccc1)(c1ncc(C[N+]23CCC(CC2)[C@@H](OCc2ccc(C(F)(F)F)cc2)C3)o1)C1CCCCC1` [Example 33, (R)-1-[2-((R)—Cyclohexyl-hydroxy-phenyl-methyl)-oxazol-5-ylmethyl]-3-(4-trifluoromethyl-benzyloxy)-1-azonia-bicyclo[2.2.2]octane; bromide], the inhibitory constant (Ki) in experiment [2] (setting [6]) is below 5 nM. On the same count and under the same terms, the same measure for `Cc1ccc(O[C@H]2C[N+]3(Cc4nc(C(O)(c5ccccc5)c5ccccc5)no4)CCC2CC3)cc1Cl` [Example 104, (R)-3-(3-Chloro-4-methyl-phenoxy)-1-[3-(hydroxy-diphenyl-methyl)-[1,2,4]oxadiazol-5-ylmethyl]-1-azonia-bicyclo[2.2.2]octane; chloride]: below 5 nM. For `OC(c1ccccc1)(c1ccccc1)c1noc(C[N+]23CCC(CC2)[C@H](COc2ccccc2)C3)n1` [Example 93, (S)-1-[3-(Hydroxy-diphenyl-methyl)-[1,2,4]oxadiazol-5-ylmethyl]-3-phenoxymethyl-1-azonia-bicyclo[2.2.2]octane; chloride], the Ki in experiment [2] (setting [6]) is below 5 nM. On to `O=C(O[C@H]1C[N+]2(Cc3cnc([C@](O)(c4ccccc4)C4CCCCC4)o3)CCC1CC2)c1ccccc1` [Example 14, (R)-3-benzoyloxy-1-[2-((R)-cyclohexyl-hydroxy-phenyl-methyl)-oxazol-5-ylmethyl]-1-azonia-bicyclo[2.2.2]octane; formate], for which the Ki in experiment [2] (M3 Ki (SPA format, SPA format)) was 5 to 20 nM. On to `OC(c1ccccc1)(c1ccccc1)c1ncc(C[N+]23CCC(CC2)[C@@H](Sc2ccccc2)C3)o1` [Example 68, 1-[2-(Hydroxy-diphenyl-methyl)-oxazol-5-ylmethyl]-3-phenylsulfanyl-1-azonia-bicyclo[2.2.2]octane; bromide], for which the inhibitory constant (Ki) in experiment [2] (setting [6]) was below 5 nM. In the case of `OC(c1ccccc1)(c1ccccc1)c1ncc(C[N+]23CCC(CC2)[C@@H](Oc2cccc(Cl)c2Cl)C3)o1` [Example 77, (R)-3-(2,3-dichloro-phenoxy)-1-[2-(hydroxy-diphenyl-methyl)-oxazol-5-ylmethyl]-1-azonia-bicyclo[2.2.2]octane; bromide], the Ki in experiment [2] (setting [6]) is above 20 nM. Consider `Cc1ccc(CO[C@H]2C[N+]3(Cc4cnc([C@](O)(c5ccccc5)C5CCCCC5)o4)CCC2CC3)cc1` [Example 34, (R)-1-[2-((R)—Cyclohexyl-hydroxy-phenyl-methyl)-oxazol-5-ylmethyl]-3-(4-methyl-benzyloxy)-1-azonia-bicyclo[2.2.2]octane; bromide], for which, in experiment [2] (setting [6]), the Ki was below 5 nM.
